From US20230150986A1, “ANTAGONISTS OF THE MUSCARINIC ACETYLCHOLINE RECEPTOR M4” (Vanderbilt University, priority 2019, published 2023)

Biological target: T1, Human M4 (Homo sapiens, UniProt P08173)
T1 construct: Human or rat M4 cDNA, along with the chimeric G protein Gq,5, were transfected into Chinese hamster ovary (CHO-K1) cells; expressed in transfected cells; host or cells: CHO-K1 (M4/Gqi5/CHO)
T1 sequence (P08173 1-479): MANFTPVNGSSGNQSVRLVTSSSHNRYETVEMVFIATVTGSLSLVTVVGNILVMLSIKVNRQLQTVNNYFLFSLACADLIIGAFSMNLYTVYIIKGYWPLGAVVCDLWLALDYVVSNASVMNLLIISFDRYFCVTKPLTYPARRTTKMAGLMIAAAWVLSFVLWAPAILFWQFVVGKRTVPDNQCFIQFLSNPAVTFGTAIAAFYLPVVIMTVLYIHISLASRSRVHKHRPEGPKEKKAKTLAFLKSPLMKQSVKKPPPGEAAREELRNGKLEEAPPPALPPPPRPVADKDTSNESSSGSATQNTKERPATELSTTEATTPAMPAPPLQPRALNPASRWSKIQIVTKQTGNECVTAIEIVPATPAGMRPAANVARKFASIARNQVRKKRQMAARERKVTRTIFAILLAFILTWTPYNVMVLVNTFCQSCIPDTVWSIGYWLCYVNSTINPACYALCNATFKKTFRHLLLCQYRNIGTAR
Assay: mAChR M4 cell-based functional assay (calcium flux, decrease of EC80 acetylcholine response)
Conditions: for Human M4 Emin: % ACh maximum at 30 μM; for IC50: CHO-K1 cells with human M4 and Gqi5, EC80 acetylcholine
Outline: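 CHO-K1 cells stably co-expressing M4 with chimeric Gqi5, loaded with Fluo-4 AM for 50 min at 37 °C; compounds added as 10-point 1:3 curves, then acetylcholine at EC20 (143 s) and EC80 (268 s). Calcium read by FDSS fluorescence ratio; IC50 from four-parameter fit of decrease in EC80 acetylcholine response.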

Human M4 Emin	IC50	Structure (SMILES)
4%	170 nM	Fc1ccc(OCCN2C[C@H]3C[C@H](Nc4ccc(-c5cc(F)cc(F)c5F)nn4)C[C@H]3C2)cc1 [Compound 58, (3aR,5s,6aS)-2-(2-(4-fluorophenoxy)ethyl)-N-(6-(2,3,5-trifluorophenyl)pyridazin-3-yl)octahydrocyclopenta[c]pyrrol-5-amine]
2%	60 nM	COc1ccc(OCCN2C[C@H]3C[C@H](Nc4ccc(-c5cc(F)cc(F)c5F)nn4)C[C@H]3C2)cc1 [Compound 59, (3aR,5s,6aS)-2-(2-(4-methoxyphenoxy)ethyl)-N-(6-(2,3,5-trifluorophenyl)pyridazin-3-yl)octahydrocyclopenta[c]pyrrol-5-amine]
13%	810 nM	Fc1cc(F)c(F)c(-c2ccc(N[C@H]3C[C@@H]4CN(CCC(F)(F)F)C[C@@H]4C3)nn2)c1 [Compound 60, (3aR,5s,6aS)-N-(6-(2,3,5-trifluorophenyl)pyridazin-3-yl)-2-(3,3,3-trifluoropropyl)octahydrocyclopenta[c]pyrrol-5-amine]
3%	0.36 nM	Fc1cc(F)c(F)c(-c2ccc(N[C@H]3C[C@@H]4CN(CC5CC6(COC6)C5)C[C@@H]4C3)nn2)c1 [Compound 68, (3aR,5s,6aS)-2-((2-oxaspiro[3.3]heptan-6-yl)methyl)-N-(6-(2,3,5-trifluorophenyl)pyridazin-3-yl)octahydrocyclopenta[c]pyrrol-5-amine]
3%	0.9 nM	O=S1(=O)CCC(CN2C[C@H]3C[C@H](Nc4ccc(-c5cc(F)cc(F)c5F)nn4)C[C@H]3C2)CC1 [Compound 69, 4-(((3aR,5s,6aS)-5-((6-(2,3,5-trifluorophenyl)pyridazin-3-yl)amino)hexahydrocyclopenta[c]pyrrol-2(1H)-yl)methyl)tetrahydro-2H-thiopyran 1,1-dioxide]
3%	2.1 nM	Fc1cc(F)c(F)c(-c2ccc(N[C@H]3C[C@@H]4CN(CC5CC56CCOCC6)C[C@@H]4C3)nn2)c1 (stereo partly drawn) [Compound 72, (3aR,5s,6aS)-2-((6-oxaspiro[2.5]octan-1-yl)methyl)-N-(6-(2,3,5-trifluorophenyl)pyridazin-3-yl)octahydrocyclopenta[c]pyrrol-5-amine]
4%	210 nM	CCOCCN1C[C@H]2C[C@H](Nc3ccc(-c4cc(F)cc(F)c4F)nn3)C[C@H]2C1 [Compound 74, (3aR,5s,6aS)-2-(2-ethoxyethyl)-N-(6-(2,3,5-trifluorophenyl)pyridazin-3-yl)octahydrocyclopenta[c]pyrrol-5-amine]
4%	79 nM	COCCCN1C[C@H]2C[C@H](Nc3ccc(-c4cc(F)cc(F)c4F)nn3)C[C@H]2C1 [Compound 75, (3aR,5s,6aS)-2-(3-methoxypropyl)-N-(6-(2,3,5-trifluorophenyl)pyridazin-3-yl)octahydrocyclopenta[c]pyrrol-5-amine]
2%	1.2 nM	[2H]C([2H])(C1CCCOCC1)N1C[C@H]2C[C@H](Nc3ccc(-c4cc(F)cc(F)c4F)nn3)C[C@H]2C1 (stereo partly drawn) [Compound 78, (3aR,5s,6aS)-2-(oxepan-4-ylmethyl-d2)-N-(6-(2,3,5-trifluorophenyl)pyridazin-3-yl)octahydrocyclopenta[c]pyrrol-5-amine]
8%	4500 nM	[2H]C([2H])(CCOC)N1C[C@H]2C[C@H](Nc3ccc(-c4cc(F)cc(F)c4F)nn3)C[C@H]2C1 [Compound 80, (3aR,5s,6aS)-2-(3-methoxypropyl-1,1-d2)-N-(6-(2,3,5-trifluorophenyl)pyridazin-3-yl)octahydrocyclopenta[c]pyrrol-5-amine]
3%	6.7 nM	[2H]C([2H])(C1CCOCC1)N1C[C@H]2C[C@H](Nc3ccc(-c4cc(F)cc(F)c4F)nn3)C[C@H]2C1 [Compound 81, (3aR,5s,6aS)-2-((tetrahydro-2H-pyran-4-yl)methyl-d2)-N-(6-(2,3,5-trifluorophenyl)pyridazin-3-yl)octahydrocyclopenta[c]pyrrol-5-amine]

Continued, compound first:

Structure (SMILES)	Human M4 Emin	IC50
OC1(CN2C[C@H]3C[C@H](Nc4ccc(-c5cc(F)cc(F)c5F)nn4)C[C@H]3C2)CCCC1 [Compound 61, 1-(((3aR,5s,6aS)-5-((6-(2,3,5-trifluorophenyl)pyridazin-3-yl)amino)hexahydrocyclopenta[c]pyrrol-2(1H)-yl)methyl)cyclopentan-1-ol]	2%	2.3 nM
OC1(CN2C[C@H]3C[C@H](Nc4ccc(-c5cc(F)cc(F)c5F)nn4)C[C@H]3C2)CCCCCC1 [Compound 62]	3%	3300 nM
OC1(CN2C[C@H]3C[C@H](Nc4ccc(-c5cc(F)cc(F)c5F)nn4)C[C@H]3C2)C2CC3CC(C2)CC1C3 (stereo partly drawn) [Compound 63, 2-(((3aR,5s,6aS)-5-((6-(2,3,5-trifluorophenyl)pyridazin-3-yl)amino)hexahydrocyclopenta[c]pyrrol-2(1H)-yl)methyl)adamantan-2-ol]	3%	78 nM
CC(C)C(O)CN1C[C@H]2C[C@H](Nc3ccc(-c4cc(F)cc(F)c4F)nn3)C[C@H]2C1 (stereo partly drawn) [Compound 64, 3-methyl-1-((3aR,5s,6aS)-5-((6-(2,3,5-trifluorophenyl)pyridazin-3-yl)amino)hexahydrocyclopenta[c]pyrrol-2(1H)-yl)butan-2-ol]	5%	7.3 nM
OC1CCCCC1N1C[C@H]2C[C@H](Nc3ccc(-c4cc(F)cc(F)c4F)nn3)C[C@H]2C1 (stereo partly drawn) [Compound 65, 2-((3aR,5s,6aS)-5-((6-(2,3,5-trifluorophenyl)pyridazin-3-yl)amino)hexahydrocyclopenta[c]pyrrol-2(1H)-yl)cyclohexan-1-ol]	6%	350 nM
[2H]C([2H])([C@@H]1CCCOC1)N1C[C@H]2C[C@H](Nc3ccc(-c4cc(F)cc(F)c4F)nn3)C[C@H]2C1 [Compound 66, (3aR,5s,6aS)-2-(((S)-tetrahydro-2H-pyran-3-yl)methyl-d2)-N-(6-(2,3,5-trifluorophenyl)pyridazin-3-yl)octahydrocyclopenta[c]pyrrol-5-amine]	3%	12 nM
Fc1cc(F)c(F)c(-c2ccc(N[C@H]3C[C@@H]4CN(CC5CCSCC5)C[C@@H]4C3)nn2)c1 [Compound 67, (3aR,5s,6aS)-2-((tetrahydro-2H-thiopyran-4-yl)methyl)-N-(6-(2,3,5-trifluorophenyl)pyridazin-3-yl)octahydrocyclopenta[c]pyrrol-5-amine]	3%	4 nM
[2H]C1([2H])[C@H](Nc2ccc(-c3cc(F)cc(F)c3F)nn2)C([2H])([2H])[C@H]2CN(CC3CCOCC3)C[C@H]21 [Compound 70]	3%	4.4 nM
Fc1cc(F)c(F)c(-c2ccc(N[C@H]3C[C@@H]4CN(C[C@H]5[C@@H]6COC[C@@H]65)C[C@@H]4C3)nn2)c1 [Compound 71, (3aR,5s,6aS)-2-(((1R,58,6s)-3-oxabicyclo[3.1.0]hexan-6-yl)methyl)-N-(6-(2,3,5-trifluorophenyl)pyridazin-3-yl)octahydrocyclopenta[c]pyrrol-5-amine]	3%	0.47 nM
Fc1cc(F)c(F)c(-c2ccc(N[C@H]3C[C@@H]4CN(CC5CCCOCC5)C[C@@H]4C3)nn2)c1 (stereo partly drawn) [Compound 73, (3aR,5s,6aS)-2-(oxepan-4-ylmethyl)-N-(6-(2,3,5-trifluorophenyl)pyridazin-3-yl)octahydrocyclopenta[c]pyrrol-5-amine]	3%	0.82 nM
[2H]C([2H])([C@H]1[C@@H]2COC[C@@H]21)N1C[C@H]2C[C@H](Nc3ccc(-c4cc(F)cc(F)c4F)nn3)C[C@H]2C1 [Compound 76, (3aR,5s,6aS)-2-(((1R,58,6s)-3-oxabicyclo[3.1.0]hexan-6-yl)methyl-d2)-N-(6-(2,3,5-trifluorophenyl)pyridazin-3-yl)octahydrocyclopenta[c]pyrrol-5-amine]	3%	0.59 nM
[2H]C([2H])([C@@H]1CC12CCOCC2)N1C[C@H]2C[C@H](Nc3ccc(-c4cc(F)cc(F)c4F)nn3)C[C@H]2C1 [Compound 77, (3aR,5s,6aS)-2-((6-oxaspiro[2.5]octan-1-yl)methyl-d2)-N-(6-(2,3,5-trifluorophenyl)pyridazin-3-yl)octahydrocyclopenta[c]pyrrol-5-amine]	3%	2.1 nM
[2H]C([2H])(COCC)N1C[C@H]2C[C@H](Nc3ccc(-c4cc(F)cc(F)c4F)nn3)C[C@H]2C1 [Compound 79, (3aR,5s,6aS)-2-(2-ethoxyethyl-1,1-d2)-N-(6-(2,3,5-trifluorophenyl)pyridazin-3-yl)octahydrocyclopenta[c]pyrrol-5-amine]	5%	120 nM
